The test system of assay [1] is ALOMY. The experiment in a line: Pre-emergence herbicidal effect against ALOMY. Format: in vivo, Alopecurus myosuroides. The settings on record: 320 g/ha, scored visually after 3 weeks vs untreated controls, 100% = plants have died. An excerpt:
(§1) Seeds of monocotyledonous and dicotyledonous weed plants and crop plants are laid out in sandy loam soil in wood-fiber pots and covered with soil. The compounds of the invention, formulated in the form of wettable powders (WP) or as emulsion concentrates (EC), are then applied to the surface of the covering soil as aqueous suspension or emulsion at a water application rate equating to 600 to 800 L/ha with addition of 0.2% wetting agent.
(§2) After the treatment, the pots are placed in a greenhouse and kept under good growth conditions for the trial plants. The damage to the test plants is scored visually after a test period of 3 weeks by comparison with untreated controls (herbicidal activity in percent (%): 100% activity=the plants have died, 0% activity=like control plants).

In assay [2] the test system is AVEFA. The experiment in a line: Pre-emergence herbicidal effect against AVEFA. Format: in vivo, Avena fatua. Conditions: 320 g/ha, scored visually after 3 weeks vs untreated controls, 100% = plants have died.
From the text: as §1, §2

The test system of assay [3] is DIGSA. Nature of the assay: Pre-emergence herbicidal effect against DIGSA. Format: in vivo, Digitaria sanguinalis. The settings on record: 320 g/ha, scored visually after 3 weeks vs untreated controls, 100% = plants have died.
From the text: as §1, §2

For assay [4], the system named is LOLRI. The experiment in a line: Pre-emergence herbicidal effect against LOLRI. In kind it is in vivo, Lolium rigidum. The settings on record: 320 g/ha, scored visually after 3 weeks vs untreated controls, 100% = plants have died.
From the text: as §1, §2

For assay [5], the system named is SETVI. Nature of the assay: Pre-emergence herbicidal effect against SETVI. The settings on record: 320 g/ha, scored visually after 3 weeks vs untreated controls, 100% = plants have died. In kind it is in vivo, Setaria viridis.
From the text: as §1, §2

Assay [6] relates to VIOTR. Nature of the assay: Pre-emergence herbicidal effect against VIOTR. In kind it is in vivo, Viola tricolor. Conditions: 320 g/ha, scored visually after 3 weeks vs untreated controls, 100% = plants have died.
From the text: as §1, §2

Assay [7] has as its system ECHCG. The experiment in a line: Pre-emergence herbicidal effect against ECHCG. In kind it is in vivo, Echinochloa crus-galli. The settings on record: 320 g/ha, scored visually after 3 weeks vs untreated controls, 100% = plants have died.
From the text: as §1, §2

In assay [8] the test system is ALOMY. Nature of the assay: Post-emergence herbicidal effect against ALOMY. The settings on record: one-leaf stage, 80 g/ha, assessed visually after about 3 weeks vs untreated controls, 100% = plants have died. Format: in vivo, Alopecurus myosuroides. The protocol: (§3) Seeds of monocotyledonous and dicotyledonous weed and crop plants are laid out in sandy loam soil in wood-fiber pots, covered with soil and cultivated in a greenhouse under good growth conditions. 2 to 3 weeks after sowing, the test plants are treated at the one-leaf stage. The compounds of the invention, formulated in the form of wettable powders (WP) or as emulsion concentrates (EC), are then sprayed onto the green parts of the plants as aqueous suspension or emulsion at a water application rate equating to 600 to 800 l/ha with addition of 0.2% wetting agent. After the test plants have been left to stand in the greenhouse under optimal growth conditions for about 3 weeks, the action of the preparations is assessed visually in comparison to untreated controls (herbicidal action in percent (%): 100% activity=the plants have died, 0% activity=like control plants).

In assay [9] the test system is DIGSA. The experiment in a line: Post-emergence herbicidal effect against DIGSA. Conditions: one-leaf stage, 80 g/ha, assessed visually after about 3 weeks vs untreated controls, 100% = plants have died. Format: in vivo, Digitaria sanguinalis. The protocol: as §3
For assay [10], the system named is ECHCG. The experiment in a line: Post-emergence herbicidal effect against ECHCG. Format: in vivo, Echinochloa crus-galli. The settings on record: one-leaf stage, 80 g/ha, assessed visually after about 3 weeks vs untreated controls, 100% = plants have died. The protocol:
as §3

The test system of assay [11] is LOLRI. The experiment in a line: Post-emergence herbicidal effect against LOLRI. In kind it is in vivo, Lolium rigidum. Conditions: one-leaf stage, 80 g/ha, assessed visually after about 3 weeks vs untreated controls, 100% = plants have died. The protocol:
as §3

Assay [12] concerns SETVI. Nature of the assay: Post-emergence herbicidal effect against SETVI. Format: in vivo, Setaria viridis. Conditions: one-leaf stage, 80 g/ha, assessed visually after about 3 weeks vs untreated controls, 100% = plants have died. As to the method: as §3
For assay [13], the system named is AVEFA. Nature of the assay: Post-emergence herbicidal effect against AVEFA. The settings on record: one-leaf stage, 80 g/ha, assessed visually after about 3 weeks vs untreated controls, 100% = plants have died. In kind it is in vivo, Avena fatua. As to the method: as §3

On to `CC#Cc1cc(Br)c(C2=C(O)C3(CCC(OC)CC3)NC2=O)c(C2CC2)c1` (stereo not shown) [Example E26], for which the “Pre-emergence action [%] against ALOMY” value in [1] was found to be 100%. In addition, in assay [2], the “Pre-emergence action [%] against AVEFA” value is 90%. In addition, the “Pre-emergence action [%] against DIGSA” value in [3] is listed as 100%. In assay [4], the “Pre-emergence action [%] against LOLRI” value is recorded as 100%. The “Pre-emergence action [%] against SETVI” value in assay [5] is recorded as 100%. In addition, the “Pre-emergence action [%] against VIOTR” value in assay [6] is given as 90%. In addition, in assay [7], the “Pre-emergence action [%] against ECHCG” value is 100%. In addition, the “Post-emergence action [%] against ALOMY” value in assay [8] is on record as 100%. The “Post-emergence action [%] against DIGSA” value in assay [9] stood at 100%. For the same compound, the “Post-emergence action [%] against ECHCG” value in assay [10] is reported as 100%. The “Post-emergence action [%] against LOLRI” value in assay [11] was 100%. Further, in [12], the “Post-emergence action [%] against SETVI” value is recorded as 100%.
As to `CC#Cc1cc(C)c(C2=C(O)C3(CCC(OC)CC3)NC2=O)c(Br)c1` (stereo not shown) [Example E21], the “Pre-emergence action [%] against ALOMY” value in assay [1] was determined as 100%. Besides, the “Pre-emergence action [%] against AVEFA” value in assay [2] worked out at 100%. Also, the “Pre-emergence action [%] against DIGSA” value in assay [3] came to 100%. In addition, in assay [4], the “Pre-emergence action [%] against LOLRI” value came out at 100%. The “Pre-emergence action [%] against SETVI” value in assay [5] is reported as 100%. For the same compound, in assay [6], the “Pre-emergence action [%] against VIOTR” value was 100%. Moreover, in assay [7], the “Pre-emergence action [%] against ECHCG” value was found to be 100%. For the same compound, the “Post-emergence action [%] against ALOMY” value in assay [8] stood at 100%. Also, the “Post-emergence action [%] against AVEFA” value in assay [13] stood at 90%. Further, the “Post-emergence action [%] against DIGSA” value in assay [9] is given as 100%. In [10], the “Post-emergence action [%] against ECHCG” value is listed as 100%. In assay [11], the “Post-emergence action [%] against LOLRI” value is given as 100%. Moreover, in assay [12], the “Post-emergence action [%] against SETVI” value is reported as 100%.
Regarding `CC#Cc1cc(Br)c(C2=C(O)C3(CCC(OC)CC3)NC2=O)c(CC)c1` (stereo not shown) [Example E25], the “Pre-emergence action [%] against VIOTR” value in [6] was 80%. Further, the “Post-emergence action [%] against ALOMY” value in assay [8] worked out at 90%. In addition, in [12], the “Post-emergence action [%] against SETVI” value is recorded as 90%.
On to `CC#Cc1cc(Br)c(C2=C(O)C3(CCCC(OCCOC)C3)NC2=O)c(C2CC2)c1` (stereo not shown) [Example D11], for which the “Pre-emergence action [%] against ALOMY” value in assay [1] came out at 100%. Moreover, the “Pre-emergence action [%] against AVEFA” value in assay [2] is 100%. Also, the “Pre-emergence action [%] against DIGSA” value in assay [3] is given as 100%. Besides, in assay [4], the “Pre-emergence action [%] against LOLRI” value is reported as 100%. Also, in assay [5], the “Pre-emergence action [%] against SETVI” value was found to be 100%. In [6], the “Pre-emergence action [%] against VIOTR” value is on record as 100%. Besides, in assay [7], the “Pre-emergence action [%] against ECHCG” value is 100%. For the same compound, in assay [8], the “Post-emergence action [%] against ALOMY” value is on record as 100%. In assay [9], the “Post-emergence action [%] against DIGSA” value is 100%. For the same compound, in assay [10], the “Post-emergence action [%] against ECHCG” value came to 100%. Moreover, the “Post-emergence action [%] against LOLRI” value in [11] is on record as 100%. Further, in assay [12], the “Post-emergence action [%] against SETVI” value was determined as 100%.
`CC#Cc1cc(Cl)c(C2=C(O)C3(CCC(OCC)CC3)NC2=O)c(CC)c1` (stereo not shown) [Example E12]: in [1], the “Pre-emergence action [%] against ALOMY” value was 90%. Besides, in [2], the “Pre-emergence action [%] against AVEFA” value stood at 90%. Further, the “Pre-emergence action [%] against DIGSA” value in assay [3] is listed as 100%. Besides, the “Pre-emergence action [%] against LOLRI” value in [4] came to 100%. For the same compound, the “Pre-emergence action [%] against SETVI” value in assay [5] turned out to be 100%. The “Pre-emergence action [%] against VIOTR” value in assay [6] stood at 100%. In assay [7], the “Pre-emergence action [%] against ECHCG” value is 100%. Moreover, the “Post-emergence action [%] against ECHCG” value in assay [10] is listed as 100%. For the same compound, the “Post-emergence action [%] against SETVI” value in [12] came out at 100%.
`CC#Cc1cc(Cl)c(C2=C(O)C3(CCC(OC)CC3)NC2=O)c(CC)c1` (stereo not shown) [Example E20]: the “Pre-emergence action [%] against ALOMY” value in assay [1] is listed as 100%. Also, in assay [2], the “Pre-emergence action [%] against AVEFA” value came to 100%. Further, in assay [3], the “Pre-emergence action [%] against DIGSA” value is listed as 100%. Also, the “Pre-emergence action [%] against LOLRI” value in assay [4] is on record as 90%. In addition, the “Pre-emergence action [%] against SETVI” value in [5] was found to be 100%. Moreover, the “Pre-emergence action [%] against VIOTR” value in assay [6] is reported as 100%. For the same compound, the “Pre-emergence action [%] against ECHCG” value in assay [7] was 100%. Besides, the “Post-emergence action [%] against AVEFA” value in assay [13] is recorded as 90%. Moreover, the “Post-emergence action [%] against DIGSA” value in [9] worked out at 100%. For the same compound, the “Post-emergence action [%] against ECHCG” value in [10] amounted to 100%. Besides, the “Post-emergence action [%] against LOLRI” value in [11] was found to be 80%. Also, the “Post-emergence action [%] against SETVI” value in [12] came to 100%.
